From PubChem BioAssay AID2060614 (Molecular Pharmacology Branch, DTP, NCI, 2025)

System: 598228-144-R-J1-PDC complex spheroids, viability
Experiment: Anticancer human tumor 598228-144-R-J1-PDC patient-derived serous endometrial adenocarcinoma cell line growth inhibition [CLK]
Details: for IC50: curve of first compound; for viability, T/C: stronger effect = lower value
From the text: A high-throughput screen of multi-cell type tumor spheroids was designed to identify active combinations of […] and targeted small molecules. Complex spheroids include a stromal component modeled by human endothelial cells (HUVEC) and fibroblasts modeled by human mesenchymal stem cells (MSCs). The concentration ranges selected for each drug and investigational agent were based upon clinically achievable concentrations if the clinical Cmax of the agent was known.
Compounds. The drugs and investigational agents: cirtuvivint (SM08502; NSC835563), CC-671 (NSC850746), vemurafenib (NSC761431), tapotoclax (NSC804041), sotorasib (NSC818433), adagrasib (NSC831453), MRTX-1133 (NSC836407), BAY2416964 (NSC825713), copanlisib (NSC816437), inavolisib (NSC800729), abemaciclib (NSC768073), osimertinib (NSC779217), entinostat (NSC756642), eltanexor (KPT-8602, NSC794443), venetoclax (NSC766270), ceralasertib (NSC777638), bortezomib (NSC756655), olaparib (NSC753686), talazoparib (NSC767125), alisertib (NSC759677), peposertib (NSC802822), gemcitabine (NSC613327), 5-fluorouracil (NSC19893), SN-38 (NSC673596), oxaliplatin (NSC266046), paclitaxel (NSC125973), and doxorubicin (NSC123127), were obtained from the National Cancer Institute (NCI) Developmental Therapeutics Program Chemical Repository. The FDA-approved anticancer drug set is available from the Developmental Therapeutics Program at https://dtp.cancer.gov/organization/dscb/obtaining/available plates.htm. […] The stock solutions were prepared in dimethyl sulfoxide (DMSO, Sigma-Aldrich, St. Louis, MO, cat. D2650), except for the platinum complexes which were prepared in saline (Quality Biological, Gaithersburg, MD, cat. 114-055-101), at 800-fold the tested concentration and stored at -70 degrees C prior to their use. All drugs and investigational agents were tested over a range starting from a high concentration at or near the clinical Cmax and decreasing in half-log increments. If the clinical Cmax for an agent had not been determined, the highest concentration tested was 10 microM.
Cell Culture. All cells were maintained in an incubator at 37 degrees C and 5% CO2 with 95% humidity. The PDC lines were cultured according to standard operating procedures established by the NCI PDMR. Briefly, all PDCs were thawed and cultured in Matrigel-coated flasks prepared with a working solution of 1X Ham's F-12 nutrient mix, without supplementation (Invitrogen, Waltham, MA, cat. 11765054), 100 U/mL penicillin-streptomycin (Invitrogen, cat. 15140122), and 2.5% Matrigel (Corning Inc., Corning, NY, cat. 354248) for the first three passages. The 947758-054-R-J2-PDC line was cultured in 6B/Colon 1A media, which includes advanced DMEM/F-12 (Thermo Fisher Scientific, cat. 12634028), 10 mM HEPES (Thermo Fisher Scientific, cat. 15630080), 1X GlutaMAX supplement (Thermo Fisher Scientific, cat. 35050061), 0.1 mg/mL primocin (InvivoGen, cat. ant-pm-2), 10% defined fetal bovine serum, heat inactivated (HyClone Laboratories Inc., cat. SH30070.03HI), 1.25 mM N-Acetyl-L-cysteine (Sigma-Aldrich, cat. A9165), 10 mM nicotinamide (Sigma-Aldrich, cat. N0636), 1X B-27 supplement (Thermo Fisher Scientific, cat. 17504044), 1X N-2 supplement (Thermo Fisher Scientific, cat. 17502048), and 10 microM Y-27632 dihydrochloride (Tocris Bioscience, cat. 1254). The 876862-298-R-J1-PDC was cultured in 6E media, which includes all 6B/Colon 1A media components plus 50% L-WRN conditioned media (ATCC, cat. CRL-3276), 50 ng/mL recombinant human EGF recombinant protein (hEGF; Thermo Fisher Scientific, cat. PHG0311), 10 ng/mL recombinant human fibroblast growth factor 10 (hGFG-10; PeproTech, cat. 100-26), 1 ng/mL recombinant human fibroblast growth factor 2 (hFGF-2; PeproTech, cat. 100-18B), and 1 µM prostaglandin E2 (PGE2; Tocris, cat. 2296). The 227483-062-R1-J1-PDC line was cultured in Panc media, containing all 6E components except hFGF-2, with the addition of 500 nM SB-431542 (Selleckchem, cat. S1067) and 10 nM gastrin (Tocris, cat. 3006). […]
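Also: spheroids exposed to compounds for seven days before readout.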
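For viability, T/C in this document: 100% = DMSO vehicle control wells.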

Compound: CC1(C)CCC(CN2CCN(c3ccc(C(=O)NS(=O)(=O)c4ccc(NCC5CCOCC5)c([N+](=O)[O-])c4)c(Oc4cnc5[nH]ccc5c4)c3)CC2)=C(c2ccc(Cl)cc2)C1 + CNC(=O)c1ccc(Nc2nc(OC3CCCC3)c3c(-c4ccc5nc(C)oc5c4)c[nH]c3n2)c(OC)c1
- IC50 (second compound 0.0316 µM): 7.05 µM
- IC50 (second compound 0.1 µM): 6.44 µM
- IC50 (second compound 0.316 µM): 6.42 µM
- IC50 (second compound 1 µM): 6.64 µM
- IC50 (second compound 3.16 µM): 6.11 µM
- IC50 (second compound 10 µM): 6.42 µM
- viability, T/C (second compound 0.0316 µM, first compound 0.0316 µM): 96.4%
- viability, T/C (second compound 0.0316 µM, first compound 0.1 µM): 116%
- viability, T/C (second compound 0.0316 µM, first compound 0.316 µM): 105%
- viability, T/C (second compound 0.0316 µM, first compound 1 µM): 96.5%
- viability, T/C (second compound 0.0316 µM, first compound 3.16 µM): 100%
- viability, T/C (second compound 0.0316 µM, first compound 10 µM): 28.1%
- viability, T/C (second compound 0.1 µM, first compound 0.0316 µM): 105%
- viability, T/C (second compound 0.1 µM, first compound 0.1 µM): 97.6%
- viability, T/C (second compound 0.1 µM, first compound 0.316 µM): 103%
- viability, T/C (second compound 0.1 µM, first compound 1 µM): 99.4%
- viability, T/C (second compound 0.1 µM, first compound 3.16 µM): 99.4%
- viability, T/C (second compound 0.1 µM, first compound 10 µM): 19.5%
- viability, T/C (second compound 0.316 µM, first compound 0.0316 µM): 106%
- viability, T/C (second compound 0.316 µM, first compound 0.1 µM): 104%
- viability, T/C (second compound 0.316 µM, first compound 0.316 µM): 98.5%
- viability, T/C (second compound 0.316 µM, first compound 1 µM): 103%
- viability, T/C (second compound 0.316 µM, first compound 3.16 µM): 105%
- viability, T/C (second compound 0.316 µM, first compound 10 µM): 16.6%
- viability, T/C (second compound 1 µM, first compound 0.0316 µM): 106%
- viability, T/C (second compound 1 µM, first compound 0.1 µM): 99.9%
- viability, T/C (second compound 1 µM, first compound 0.316 µM): 96.5%
- viability, T/C (second compound 1 µM, first compound 1 µM): 95.4%
- viability, T/C (second compound 1 µM, first compound 3.16 µM): 99.2%
- viability, T/C (second compound 1 µM, first compound 10 µM): 22.8%
- viability, T/C (second compound 3.16 µM, first compound 0.0316 µM): 99.1%
- viability, T/C (second compound 3.16 µM, first compound 0.1 µM): 91.1%
- viability, T/C (second compound 3.16 µM, first compound 0.316 µM): 79.9%
- viability, T/C (second compound 3.16 µM, first compound 1 µM): 84.3%
- viability, T/C (second compound 3.16 µM, first compound 3.16 µM): 89.3%
- viability, T/C (second compound 3.16 µM, first compound 10 µM): 21%
- viability, T/C (second compound 10 µM, first compound 0.0316 µM): 86.3%
- viability, T/C (second compound 10 µM, first compound 0.1 µM): 89%
- viability, T/C (second compound 10 µM, first compound 0.316 µM): 83.3%
- viability, T/C (second compound 10 µM, first compound 1 µM): 81.2%
- viability, T/C (second compound 10 µM, first compound 3.16 µM): 97.6%
- viability, T/C (second compound 10 µM, first compound 10 µM): 26.6%
